Data as given in the NIST ThermoML archive (doi:10.1021/je050316s).
± gives the expanded uncertainty stated by the source. Blank lines part the entries; values can stand above or below the compound they belong to.

What was measured:
[1] = refractive index (Na D-line) (dimensionless); conditions: 101.33 kPa, Liquid, Standard Abbe refractometry
[2] = Liquid; for mass density: 101.33 kPa
[3] = xn = mol fraction of the nth substance listed; conditions: 303.15 K, 101.33 kPa, Liquid
[4] = activity coefficient (dimensionless); of the first substance listed, at infinite dilution; xn = mol fraction of the nth substance listed; conditions: Liquid, Differential ebulliometry, x1 = 0

SMILES: Nc1ccccc1 [aniline]
refractive index ([1]; 293.15 K): 1.5862 ± 0.0004
mass density ([2]; 293.15 K): 1021.72 ± 0.27 kg/m3
mass density ([2]; 303.15 K): 1012.94 ± 0.27 kg/m3

SMILES: Nc1ccccc1 [aniline] + NC1CCCCC1
mass density ([3]; x2 = 0): 1012.94 ± 0.27 kg/m3

SMILES: NC1CCCCC1 [cyclohexylamine]
refractive index ([1]; 288.15 K): 1.4624 ± 0.0005
mass density ([2]; 303.15 K): 858.2 ± 0.18 kg/m3
vapor or sublimation pressure ([2]; 333.15 K): 7.51 ± 0.5 kPa
vapor or sublimation pressure ([2]; 363.15 K): 25.59 ± 0.58 kPa

SMILES: NC1CCCCC1 [cyclohexylamine] + CCCCCCC
mass density ([3]; x1 = 0.1009): 689.34 ± 0.43 kg/m3
mass density ([3]; x1 = 0.1999): 703.99 ± 0.41 kg/m3
mass density ([3]; x1 = 0.3006): 719.71 ± 0.39 kg/m3
mass density ([3]; x1 = 0.3983): 735.92 ± 0.37 kg/m3
mass density ([3]; x1 = 0.5): 753.83 ± 0.35 kg/m3
mass density ([3]; x1 = 0.5999): 772.37 ± 0.33 kg/m3
mass density ([3]; x1 = 0.6989): 791.79 ± 0.31 kg/m3
mass density ([3]; x1 = 0.7996): 812.68 ± 0.28 kg/m3
mass density ([3]; x1 = 0.8993): 834.6 ± 0.26 kg/m3
mass density ([3]; x1 = 1): 858.2 ± 0.23 kg/m3

SMILES: NC1CCCCC1 [cyclohexylamine] + CCCCCCCC
mass density ([3]; x1 = 0.1036): 705.94 ± 0.38 kg/m3
mass density ([3]; x1 = 0.2003): 717.44 ± 0.37 kg/m3
mass density ([3]; x1 = 0.3006): 730.4 ± 0.36 kg/m3
mass density ([3]; x1 = 0.4085): 745.58 ± 0.34 kg/m3
mass density ([3]; x1 = 0.5001): 759.5 ± 0.33 kg/m3
mass density ([3]; x1 = 0.5991): 775.85 ± 0.31 kg/m3
mass density ([3]; x1 = 0.6998): 793.85 ± 0.29 kg/m3
mass density ([3]; x1 = 0.7503): 803.55 ± 0.28 kg/m3
mass density ([3]; x1 = 0.8018): 813.83 ± 0.27 kg/m3
mass density ([3]; x1 = 0.8502): 823.95 ± 0.27 kg/m3
mass density ([3]; x1 = 1): 858.2 ± 0.23 kg/m3
activity coefficient ([4]; 353.15 K): 1.61 ± 0.1
activity coefficient ([4]; 373.15 K): 1.5 ± 0.09
activity coefficient ([4]; 393.15 K): 1.42 ± 0.09

SMILES: NC1CCCCC1 [cyclohexylamine] + CCCCCCCCC
mass density ([3]; x1 = 0.0998): 718.79 ± 0.37 kg/m3
mass density ([3]; x1 = 0.1994): 728.47 ± 0.36 kg/m3
mass density ([3]; x1 = 0.301): 739.41 ± 0.35 kg/m3
mass density ([3]; x1 = 0.401): 751.43 ± 0.34 kg/m3
mass density ([3]; x1 = 0.4998): 764.51 ± 0.32 kg/m3
mass density ([3]; x1 = 0.6006): 779.38 ± 0.31 kg/m3
mass density ([3]; x1 = 0.7): 795.69 ± 0.29 kg/m3
mass density ([3]; x1 = 0.7955): 813.15 ± 0.28 kg/m3
mass density ([3]; x1 = 0.8999): 834.62 ± 0.26 kg/m3
mass density ([3]; x1 = 1): 858.2 ± 0.23 kg/m3

SMILES: NC1CCCCC1 [cyclohexylamine] + CCCCCCCCCC
mass density ([3]; x1 = 0.1004): 729.74 ± 0.37 kg/m3
mass density ([3]; x1 = 0.2003): 737.86 ± 0.36 kg/m3
mass density ([3]; x1 = 0.3002): 746.97 ± 0.35 kg/m3
mass density ([3]; x1 = 0.3994): 757.29 ± 0.34 kg/m3
mass density ([3]; x1 = 0.4998): 768.9 ± 0.32 kg/m3
mass density ([3]; x1 = 0.5996): 782.09 ± 0.31 kg/m3
mass density ([3]; x1 = 0.6996): 797.14 ± 0.29 kg/m3
mass density ([3]; x1 = 0.8002): 814.52 ± 0.28 kg/m3
mass density ([3]; x1 = 0.9006): 834.67 ± 0.26 kg/m3
mass density ([3]; x1 = 1): 858.2 ± 0.23 kg/m3

SMILES: NC1CCCCC1 [cyclohexylamine] + CCCCCCCCCCC
mass density ([3]; x1 = 1): 858.2 ± 0.23 kg/m3

SMILES: NC1CCCCC1 [cyclohexylamine] + CCc1ccccc1
activity coefficient ([4]; 353.15 K): 1.13 ± 0.07
activity coefficient ([4]; 373.15 K): 1.09 ± 0.07
activity coefficient ([4]; 393.15 K): 1.06 ± 0.06

SMILES: NC1CCCCC1 [cyclohexylamine] + Cc1ccccc1
activity coefficient ([4]; 353.15 K): 1.19 ± 0.07
activity coefficient ([4]; 373.15 K): 1.12 ± 0.07

SMILES: NC1CCCCC1 [cyclohexylamine] + Nc1ccccc1
mass density ([3]; x1 = 0.1161): 992.51 ± 0.25 kg/m3
mass density ([3]; x1 = 0.1936): 979.58 ± 0.23 kg/m3
mass density ([3]; x1 = 0.281): 965.35 ± 0.22 kg/m3
mass density ([3]; x1 = 0.3837): 949.2 ± 0.21 kg/m3
mass density ([3]; x1 = 0.4907): 932.82 ± 0.21 kg/m3
mass density ([3]; x1 = 0.5932): 917.38 ± 0.21 kg/m3
mass density ([3]; x1 = 0.7087): 900.24 ± 0.21 kg/m3
mass density ([3]; x1 = 0.7738): 890.69 ± 0.21 kg/m3
mass density ([3]; x1 = 0.8759): 875.75 ± 0.22 kg/m3
mass density ([3]; x1 = 1): 858.2 ± 0.23 kg/m3
activity coefficient ([4]; 383.15 K): 0.84 ± 0.05
activity coefficient ([4]; 393.15 K): 0.94 ± 0.06
activity coefficient ([4]; 403.15 K): 1.03 ± 0.06

SMILES: NC1CCCCC1 [cyclohexylamine] + O
mass density ([3]; x1 = 0.1002): 956.7 ± 0.15 kg/m3
mass density ([3]; x1 = 0.197): 935.34 ± 0.16 kg/m3
mass density ([3]; x1 = 0.2237): 930.93 ± 0.16 kg/m3
mass density ([3]; x1 = 0.3021): 919.43 ± 0.17 kg/m3
mass density ([3]; x1 = 0.397): 908.71 ± 0.18 kg/m3
mass density ([3]; x1 = 0.5016): 897.85 ± 0.19 kg/m3
mass density ([3]; x1 = 0.6037): 888.39 ± 0.2 kg/m3
mass density ([3]; x1 = 0.6931): 880.7 ± 0.21 kg/m3
mass density ([3]; x1 = 0.7801): 873.76 ± 0.21 kg/m3
mass density ([3]; x1 = 0.9004): 864.97 ± 0.22 kg/m3
mass density ([3]; x1 = 1): 858.2 ± 0.23 kg/m3

refractive index ([1]; 298.15 K): 1.4092 ± 0.0004
mass density ([2]; 298.15 K): 726.55 ± 0.38 kg/m3
mass density ([2]; 303.15 K): 722.54 ± 0.38 kg/m3
SMILES: CCCCCCCCCC [decane]

mass density ([3]; x2 = 0): 722.54 ± 0.38 kg/m3
SMILES: CCCCCCCCCC [decane] + NC1CCCCC1

refractive index ([1]; 293.15 K): 1.496 ± 0.0004
mass density ([2]; 298.15 K): 862.59 ± 0.19 kg/m3
SMILES: CCc1ccccc1 [ethylbenzene]

activity coefficient ([4]; 353.15 K): 1.18 ± 0.07
activity coefficient ([4]; 373.15 K): 1.16 ± 0.07
activity coefficient ([4]; 393.15 K): 1.13 ± 0.07
SMILES: CCc1ccccc1 [ethylbenzene] + NC1CCCCC1

refractive index ([1]; 298.15 K): 1.3853 ± 0.0004
mass density ([2]; 298.15 K): 679.43 ± 0.44 kg/m3
mass density ([2]; 303.15 K): 675.32 ± 0.44 kg/m3
SMILES: CCCCCCC [heptane]

mass density ([3]; x2 = 0): 675.32 ± 0.44 kg/m3
SMILES: CCCCCCC [heptane] + NC1CCCCC1

refractive index ([1]; 293.15 K): 1.4055 ± 0.0004
mass density ([2]; 293.15 K): 719.13 ± 0.38 kg/m3
mass density ([2]; 303.15 K): 710.05 ± 0.38 kg/m3
SMILES: CCCCCCCCC [nonane]

mass density ([3]; x2 = 0): 710.05 ± 0.38 kg/m3
SMILES: CCCCCCCCC [nonane] + NC1CCCCC1

refractive index ([1]; 298.15 K): 1.3946 ± 0.0004
mass density ([2]; 298.15 K): 698.49 ± 0.39 kg/m3
mass density ([2]; 303.15 K): 694.67 ± 0.39 kg/m3
SMILES: CCCCCCCC [octane]

mass density ([3]; x2 = 0): 694.67 ± 0.39 kg/m3
activity coefficient ([4]; 353.15 K): 1.36 ± 0.08
activity coefficient ([4]; 373.15 K): 1.29 ± 0.08
activity coefficient ([4]; 393.15 K): 1.2 ± 0.07
SMILES: CCCCCCCC [octane] + NC1CCCCC1

SMILES: Cc1ccccc1 [toluene] + NC1CCCCC1
activity coefficient ([4]; 353.15 K): 1.14 ± 0.07
activity coefficient ([4]; 373.15 K): 1.13 ± 0.07
activity coefficient ([4]; 393.15 K): 1.06 ± 0.06

mass density ([3]; x2 = 0): 732.93 ± 0.36 kg/m3
mass density ([3]; x2 = 0.1): 738.82 ± 0.35 kg/m3
mass density ([3]; x2 = 0.2172): 747 ± 0.34 kg/m3
mass density ([3]; x2 = 0.3066): 754.16 ± 0.34 kg/m3
mass density ([3]; x2 = 0.4011): 762.69 ± 0.33 kg/m3
mass density ([3]; x2 = 0.5005): 772.99 ± 0.32 kg/m3
mass density ([3]; x2 = 0.5997): 784.83 ± 0.3 kg/m3
mass density ([3]; x2 = 0.7005): 798.79 ± 0.29 kg/m3
mass density ([3]; x2 = 0.7998): 814.98 ± 0.27 kg/m3
mass density ([3]; x2 = 0.8998): 834.57 ± 0.26 kg/m3
SMILES: CCCCCCCCCCC [undecane] + NC1CCCCC1

refractive index ([1]; 293.15 K): 1.3336 ± 0.0004
SMILES: O [water]
